# Earlier results in patent publication US12070444B2, “Modulation of molecular markers using S-equol” (Board of Regents, The University of Texas System, priority 2020, dated 2024).
# Like-named read-outs stand apart in the source and are kept apart here.
# What was measured:
# [1] = tested on: TNBC; settings: cited from earlier work
# [2] = tested on: Ki67 expression; settings: IMPACT trial; cited from earlier work
# [3] = tested on: tumor resistance to ICB immunotherapy; settings: recent report (Huang, 2020); cited from earlier work
compound,measurement,setting,value
atezolizumab,response rate,"[1]; 21 evaluable, PD-L1 expressing TNBC tumors (Emens et al. 2015)",19%
CC(C)(C#N)c1cc(Cn2cncn2)cc(C(C)(C)C#N)c1 [anastrazole],change in the geometric mean of Ki67 expression after two weeks,[2],−76%
avelumab,response rate,[1]; 168 TNBC tumors unselected for PD-L1 expression (Dirix et al. 2015),8.6%
pembrolizumab,response rate,"[1]; Phase 1 study, 27 women, heavily pretreated chemotherapy resistant metastatic TNBC expressing PD-L1 (Nanda et al. 2016)",18.4%
Oc1ccc([C@@H]2Oc3ccc(O)cc3[C@@H]3CCC[C@@H]32)cc1 [LY500307],effect on tumor resistance to ICB immunotherapy,[3],overcoming tumor resistance to ICB immunotherapy
CC/C(=C(\c1ccccc1)c1ccc(OCCN(C)C)cc1)c1ccccc1 [tamoxifen],change in the geometric mean of Ki67 expression after two weeks,[2],−59.5%
